Measured values taken from patent US20210395239A1 (Hoffmann-La Roche Inc., priority 2018, published 2021).

Biological target: T1, hTLR9 (Homo sapiens, UniProt Q9NR96)
T1 sequence (Q9NR96 26-1032): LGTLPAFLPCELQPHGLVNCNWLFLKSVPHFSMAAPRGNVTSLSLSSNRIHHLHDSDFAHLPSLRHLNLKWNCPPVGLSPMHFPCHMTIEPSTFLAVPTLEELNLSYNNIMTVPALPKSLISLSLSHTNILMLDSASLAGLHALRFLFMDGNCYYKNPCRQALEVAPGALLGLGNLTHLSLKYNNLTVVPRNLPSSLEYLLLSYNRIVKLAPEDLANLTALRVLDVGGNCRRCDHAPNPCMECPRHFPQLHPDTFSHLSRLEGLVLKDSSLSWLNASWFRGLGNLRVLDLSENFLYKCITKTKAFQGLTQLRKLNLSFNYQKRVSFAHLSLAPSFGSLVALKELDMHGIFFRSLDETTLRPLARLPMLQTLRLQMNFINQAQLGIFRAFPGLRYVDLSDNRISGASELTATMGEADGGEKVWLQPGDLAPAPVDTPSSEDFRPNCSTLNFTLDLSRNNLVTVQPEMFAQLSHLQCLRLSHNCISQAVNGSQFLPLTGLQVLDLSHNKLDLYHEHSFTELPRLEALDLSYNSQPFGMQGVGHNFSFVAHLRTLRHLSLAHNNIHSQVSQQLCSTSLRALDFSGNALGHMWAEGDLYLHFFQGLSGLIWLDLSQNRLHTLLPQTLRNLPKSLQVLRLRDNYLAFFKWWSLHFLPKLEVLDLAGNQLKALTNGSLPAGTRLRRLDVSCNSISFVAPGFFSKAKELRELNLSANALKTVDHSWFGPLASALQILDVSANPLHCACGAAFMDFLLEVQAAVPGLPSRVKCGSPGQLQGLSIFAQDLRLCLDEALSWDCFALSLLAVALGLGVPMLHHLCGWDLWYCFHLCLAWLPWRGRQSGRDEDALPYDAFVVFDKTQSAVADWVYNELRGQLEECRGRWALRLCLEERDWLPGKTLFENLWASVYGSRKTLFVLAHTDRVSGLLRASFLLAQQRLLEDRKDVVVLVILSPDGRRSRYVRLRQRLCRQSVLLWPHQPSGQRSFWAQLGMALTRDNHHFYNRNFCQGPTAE
Assay: HEK293-Blue-hTLR-9 cells assay (SEAP reporter, ODN2006 stimulation)
Type: cell-based
Parameters: host or cells: HEK293 (HEK-Blue hTLR9)
Conditions: HEK293-Blue-hTLR9 cells, ODN2006, 20 hrs; read-out: HEK/hTLR9 IC50
Method in brief: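 HEK293-Blue-hTLR9 cells with NF-κB/AP-1-driven SEAP reporter treated with serially diluted compound (1% DMSO final) plus ODN2006 for 20 h at 37 °C. Supernatant SEAP measured with QUANTI-Blue, 2 h at 37 °C, absorbance 620–655 nm; antagonism seen as reduced reporter signal.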

Structure (SMILES)	IC50 [nM]
[2H]c1ccc2c(N3C[C@H](CN4CCN(c5nc(C)cc(N6C[C@@H](N)[C@H](OC)C6)n5)CC4)O[C@H](C)C3)ccc(C#N)c2n1 [Example 144, 5-[(2S,6R)-2-[[4-[4-[(3R,4R)-3-amino-4-methoxy-pyrrolidin-1-yl]-6-methyl-pyrimidin-2-yl]piperazin-1-yl]methyl]-6-methyl-morpholin-4-yl]-2-deuterio-quinoline-8-carbonitrile]	31
[2H]c1ccc2c(N3C[C@H](CN4CC(c5cnc(N6CC(C)(N)C6)cc5C)C4)O[C@H](C)C3)ccc(C#N)c2n1 [Example 145, 5-[(2S,6R)-2-[[3-[6-(3-amino-3-methyl-azetidin-1-yl)-4-methyl-3-pyridyl]azetidin-1-yl]methyl]-6-methyl-morpholin-4-yl]-2-deuterio-quinoline-8-carbonitrile]	31
[2H]c1ccc2c(N3C[C@H](CN4CC(c5cnc(N6C[C@@H](N)[C@H](OC)C6)cc5C)C4)O[C@H](C)C3)ccc(C#N)c2n1 [Example 146, 5-[(2S,6R)-2-[[3-[6-[(3R,4R)-3-amino-4-methoxy-pyrrolidin-1-yl]-4-methyl-3-pyridyl]azetidin-1-yl]methyl]-6-methyl-morpholin-4-yl]-2-deuterio-quinoline-8-carbonitrile]	31
[2H]c1ccc2c(N3C[C@H](CN4CCN(c5ccc(N6CC(C)(N)C6)c(C)n5)CC4)O[C@H](C)C3)ccc(C#N)c2n1 [Example 147, 5-[(2S,6R)-2-[[4-[5-(3-amino-3-methyl-azetidin-1-yl)-6-methyl-2-pyridyl]piperazin-1-yl]methyl]-6-methyl-morpholin-4-yl]-2-deuterio-quinoline-8-carbonitrile]	181
Cc1cc(N2CC(C)(N)C2)cnc1N1CCN(C[C@H]2CN(c3ccc(C#N)n4ncc(F)c34)C[C@@H](C)O2)CC1 [Example 148, 4-[(2S,6R)-2-[[4-[5-(3-amino-3-methyl-azetidin-1-yl)-3-methyl-2-pyridyl]piperazin-1-yl]methyl]-6-methyl-morpholin-4-yl]-3-fluoro-pyrazolo[1,5-a]pyridine-7-carbonitrile]	75
[2H]c1ccc2c(N3C[C@H](CN4CC(c5ccc(N6C[C@@H](N)[C@H](OC)C6)nc5)C4)O[C@H](C)C3)ccc(C#N)c2n1 [Example 149, 5-[(2S,6R)-2-[[3-[6-[(3R,4R)-3-amino-4-methoxy-pyrrolidin-1-yl]-3-pyridyl]azetidin-1-yl]methyl]-6-methyl-morpholin-4-yl]-2-deuterio-quinoline-8-carbonitrile]	68
[2H]c1ccc2c(N3C[C@H](CN4CCN(c5ccc(N6C[C@H](N)[C@@H](F)C6)nc5)CC4)O[C@H](C)C3)ccc(C#N)c2n1 [Example 150, 5-[(2S,6R)-2-[[4-[6-[(3S,4S)-3-amino-4-fluoro-pyrrolidin-1-yl]-3-pyridyl]piperazin-1-yl]methyl]-6-methyl-morpholin-4-yl]-2-deuterio-quinoline-8-carbonitrile]	175
[2H]c1ccc2c(N3C[C@H](CN4CCN(c5ccc(N6C[C@@H]7C[C@H]6CN7)nc5)CC4)O[C@H](C)C3)ccc(C#N)c2n1 [Example 151, 2-deuterio-5-[(2S,6R)-2-[[4-[6-[(1S,4S)-2,5-diazabicyclo[2.2.1]heptan-2-yl]-3-pyridyl]piperazin-1-yl]methyl]-6-methyl-morpholin-4-yl]quinoline-8-carbonitrile]	96
[2H]c1ccc2c(N3C[C@H](CN4CCN(c5ccc(N6CC7(CNCCO7)C6)nc5)CC4)O[C@H](C)C3)ccc(C#N)c2n1 [Example 152, 2-deuterio-5-[(2R,6S)-2-methyl-6-[[4-[6-(5-oxa-2,8-diazaspiro[3.5]nonan-2-yl)-3-pyridyl]piperazin-1-yl]methyl]morpholin-4-yl]quinoline-8-carbonitrile]	99

Other lines, results leading:

IC50 [nM]	Structure (SMILES)
113	[2H]c1ccc2c(N3C[C@H](CN4CCN(c5ccc(N6C[C@H]7C[C@@H]6CN7)nc5)CC4)O[C@H](C)C3)ccc(C#N)c2n1 [Example 153, 2-deuterio-5-[(2S,6R)-2-[[4-[6-[(1R,4R)-2,5-diazabicyclo[2.2.1]heptan-2-yl]-3-pyridyl]piperazin-1-yl]methyl]-6-methyl-morpholin-4-yl]quinoline-8-carbonitrile]
112	C[C@@H]1CN(c2ccc(C#N)n3ncc(F)c23)C[C@H](CN2CCN(c3ccc(N4CC(C)(N)C4)nc3)CC2)O1 [Example 154, 4-[(2S,6R)-2-[[4-[6-(3-amino-3-methyl-azetidin-1-yl)-3-pyridyl]piperazin-1-yl]methyl]-6-methyl-morpholin-4-yl]-3-fluoro-pyrazolo[1,5-a]pyridine-7-carbonitrile]
71	[2H]c1ccc2c(N3C[C@H](CN4CCN(c5cccc(N6CC(C)(N)C6)n5)CC4)O[C@H](C)C3)ccc(C#N)c2n1 [Example 155, 5-[(2S,6R)-2-[[4-[6-(3-amino-3-methyl-azetidin-1-yl)-2-pyridyl]piperazin-1-yl]methyl]-6-methyl-morpholin-4-yl]-2-deuterio-quinoline-8-carbonitrile]
46	[2H]c1ccc2c(N3C[C@H](CN4CC(O)(c5ccc(N6CC(C)(N)C6)cc5)C4)O[C@H](C)C3)ccc(C#N)c2n1 [Example 156, 5-[(2S,6R)-2-[[3-[4-(3-amino-3-methyl-azetidin-1-yl)phenyl]-3-hydroxy-azetidin-1-yl]methyl]-6-methyl-morpholin-4-yl]-2-deuterio-quinoline-8-carbonitrile]
31	C[C@@H]1CN(c2ccc(C#N)n3nccc23)C[C@H](CN2CC(c3ccc(N4CC(C)(N)C4)nc3)C2)O1 [Example 157, 4-[(2S,6R)-2-[[3-[6-(3-amino-3-methyl-azetidin-1-yl)-3-pyridyl]azetidin-1-yl]methyl]-6-methyl-morpholin-4-yl]pyrazolo[1,5-a]pyridine-7-carbonitrile]
41	C[C@@H]1CN(c2ccc(C#N)n3ncc(F)c23)C[C@H](CN2CC(c3ccc(N4CC(C)(N)C4)nc3)C2)O1 [Example 158, 4-[(2S,6R)-2-[[3-[6-(3-amino-3-methyl-azetidin-1-yl)-3-pyridyl]azetidin-1-yl]methyl]-6-methyl-morpholin-4-yl]-3-fluoro-pyrazolo[1,5-a]pyridine-7-carbonitrile]
100	[2H]c1ccc2c(N3C[C@H](CN4CC(c5cccc(N6CC(C)(N)C6)n5)C4)O[C@H](C)C3)ccc(C#N)c2n1 [Example 159, 5-[(2S,6R)-2-[[3-[6-(3-amino-3-methyl-azetidin-1-yl)-2-pyridyl]azetidin-1-yl]methyl]-6-methyl-morpholin-4-yl]-2-deuterio-quinoline-8-carbonitrile]
163	C[C@@H]1CN(c2ccc(C#N)n3ncc(F)c23)C[C@H](CN2CC(c3ccc(N4CC(C)(N)C4)cc3)C2)O1 [Example 160, 4-[(2S,6R)-2-[[3-[4-(3-amino-3-methyl-azetidin-1-yl)phenyl]azetidin-1-yl]methyl]-6-methyl-morpholin-4-yl]-3-fluoro-pyrazolo[1,5-a]pyridine-7-carbonitrile]
59	[2H]c1ccc2c(N3C[C@H](CN4CCN(c5ccc(N6CC7(CN(C)C7)C6)nc5)CC4)O[C@H](C)C3)ccc(C#N)c2n1 [Example 161, 2-deuterio-5-[(2R,6S)-2-methyl-6-[[4-[6-(6-methyl-2,6-diazaspiro[3.3]heptan-2-yl)-3-pyridyl]piperazin-1-yl]methyl]morpholin-4-yl]quinoline-8-carbonitrile]
36	[2H]c1ccc2c(N3C[C@H](CN4CCN(c5ccc(N[C@H]6CNC[C@H]6F)nc5)CC4)O[C@H](C)C3)ccc(C#N)c2n1 [Example 162, 2-deuterio-5-[(2S,6R)-2-[[4-[6-[[(3S,4R)-4-fluoropyrrolidin-3-yl]amino]-3-pyridyl]piperazin-1-yl]methyl]-6-methyl-morpholin-4-yl]quinoline-8-carbonitrile]
101	C[C@@H]1CN(c2ccc(C#N)n3nccc23)C[C@H](CN2CC(c3ccc(N4CC(C)(N)C4)cc3)C2)O1 [Example 163, 4-[(2S,6R)-2-[[3-[4-(3-amino-3-methyl-azetidin-1-yl)phenyl]azetidin-1-yl]methyl]-6-methyl-morpholin-4-yl]pyrazolo[1,5-a]pyridine-7-carbonitrile]
